IC50 data for four compounds are collected here from US20090082329A1 (AVENTIS PHARMA S.A., priority 2006, published 2009).

One test relates to MEF-IGF1R cells. The test can be described thus: Proliferation/viability of MEF-IGF1R (Thymidine [14C] incorporation). In kind it is cell-based. To be noted: rhIGF1 100 ng/mL, incubation 72 hours, read-out: Test C IC50. The essentials: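 Serum-starved (24 h) MEF cells stably expressing human IGF-1R were exposed to compound with rhIGF1 (100 ng/mL) and [14C]thymidine for 72 h at 37 °C. Incorporation counted by scintillation; IC50 from 10 concentrations in duplicate, normalised to IGF1-stimulated (100%) and unstimulated (0%) controls, non-linear regression.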

Test [1] concerns the target T1, human cytoplasmic domain of IGF-1R (Homo sapiens, UniProt P08069).
T1 construct: The human cytoplasmic domain of IGF-1R was cloned by fusion with glutathione S-transferase (GST); made in house; host or cells: SF21 insect cells (baculovirus, pFastBac-GST)
The experiment in a line: Kinase IGF-1R test: inhibition of autophosphorylation of the enzyme (HTRF). The conditions noted are these: ATP 120 μM. In kind it is biochemical. The method in brief: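 GST-fused human IGF-1R cytoplasmic domain from Sf21 cells (5 nM) preincubated with 1/3-step compound dilutions for 30 or 90 min in pH 7.5 Hepes/MnCl2 buffer, ≤1% DMSO. Autophosphorylation started with 120 μM ATP, stopped after 5 min; HTRF (anti-GST XL665/Eu-anti-phosphotyrosine) read, IC50 from inhibition vs log concentration.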
(Time-resolved FRET reads energy transfer from a long-lived donor to a nearby acceptor.)

The target of test [2] is T2, IGF-1R in MCF7 cells (Homo sapiens, UniProt P08069). The experiment in a line: Autophosphorylation of IGF-1R in MCF7 cells after stimulation with IGF-1 (ELISA). To be noted: MCF-7 cells, compound added one hour before stimulation with IGF1; read-out: Test B IC50. Format: cell-based. Set-up: The autophosphorylation of IGF1R in the IGF1-induced cells is evaluated by means of an ELISA technique; endogenous in cells; host or cells: MCF-7 cells. The procedure: B) Measurement of the Autophosphorylation of IGF-1R in MCF7 Cells after Stimulation with IGF-1
Cell Culturing and Execution of the Test:
The autophosphorylation of IGF1R in the IGF1-induced cells is evaluated by means of an ELISA technique (Enzyme Linked ImmunoSorbent Assay). The MCF-7 are seeded at 60 000 cells per well in 6-well plates and incubated at 37° C., 5% CO2 in medium containing 10% serum. After one night in 10% serum, the cells are deprived of serum for 24 hours. The compounds are added to the medium one hour before stimulation with IGF1. After 10 minutes of stimulation with IGF1, the cells are lysed with a buffer (Hepes 50 mM pH 7.6, Triton X100 1%, orthovanadate 2 mM, protease inhibitor cocktail). The cell lysates are incubated on a 96-well plate precoated with an anti-IGF1R antibody, followed by incubation with an anti-phosphotyrosine antibody coupled to the enzyme peroxidase. The level of peroxidase activity (measured by OD with a luminescent substrate) reflects the phosphorylation status of the receptor.
(i) The tests are performed in duplicate and the mean of the two tests is calculated.
(ii) The value of the signal of the maximum response is calculated from the positive control: cells stimulated with IGF1 without compound.
(iii) Value of the signal of the minimum response is calculated from the negative control: cells not stimulated with IGF1 without compound. […]
For orientation: ELISA stands for enzyme-linked immunosorbent assay.

Test [3] addresses T2, IGF-1R in MCF7 cells. The test is described as above. Format: cell-based. Set-up: endogenous in cells; host or cells: MCF-7 cells. To be noted: MCF-7 cells, compound added one hour before stimulation with IGF1; read-out: Test B IC50. The essentials: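 MCF-7 cells serum-starved 24 h, given compound 1 h before 10 min IGF-1 stimulation, then lysed. Phospho-IGF-1R captured by anti-IGF-1R and detected with peroxidase anti-phosphotyrosine, luminescent read-out; duplicates normalized to stimulated (100%) and unstimulated (0%) controls, IC50 by non-linear regression.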

The mark [4] stands for this setting: preincubation 30 minutes with 5 nM enzyme, read-out: Test A 30′ IC50.
Where [5] appears, read: preincubation 90 minutes with 5 nM enzyme, read-out: Test A 90′ IC50.

Where two headings read alike, the source gives them in different places.

T1 sequence (P08069 960-1367 limits assumed): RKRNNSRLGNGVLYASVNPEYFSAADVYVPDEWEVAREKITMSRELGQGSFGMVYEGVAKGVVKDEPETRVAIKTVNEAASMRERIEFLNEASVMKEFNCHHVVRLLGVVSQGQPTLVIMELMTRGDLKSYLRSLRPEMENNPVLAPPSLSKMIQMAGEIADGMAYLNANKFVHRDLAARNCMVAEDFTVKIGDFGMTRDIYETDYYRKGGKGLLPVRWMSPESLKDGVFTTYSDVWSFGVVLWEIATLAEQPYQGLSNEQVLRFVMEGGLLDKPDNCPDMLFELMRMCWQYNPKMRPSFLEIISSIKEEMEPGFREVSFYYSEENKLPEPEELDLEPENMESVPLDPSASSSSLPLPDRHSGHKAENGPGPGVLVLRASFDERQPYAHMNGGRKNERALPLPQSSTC
T2 sequence (P08069 31-1367): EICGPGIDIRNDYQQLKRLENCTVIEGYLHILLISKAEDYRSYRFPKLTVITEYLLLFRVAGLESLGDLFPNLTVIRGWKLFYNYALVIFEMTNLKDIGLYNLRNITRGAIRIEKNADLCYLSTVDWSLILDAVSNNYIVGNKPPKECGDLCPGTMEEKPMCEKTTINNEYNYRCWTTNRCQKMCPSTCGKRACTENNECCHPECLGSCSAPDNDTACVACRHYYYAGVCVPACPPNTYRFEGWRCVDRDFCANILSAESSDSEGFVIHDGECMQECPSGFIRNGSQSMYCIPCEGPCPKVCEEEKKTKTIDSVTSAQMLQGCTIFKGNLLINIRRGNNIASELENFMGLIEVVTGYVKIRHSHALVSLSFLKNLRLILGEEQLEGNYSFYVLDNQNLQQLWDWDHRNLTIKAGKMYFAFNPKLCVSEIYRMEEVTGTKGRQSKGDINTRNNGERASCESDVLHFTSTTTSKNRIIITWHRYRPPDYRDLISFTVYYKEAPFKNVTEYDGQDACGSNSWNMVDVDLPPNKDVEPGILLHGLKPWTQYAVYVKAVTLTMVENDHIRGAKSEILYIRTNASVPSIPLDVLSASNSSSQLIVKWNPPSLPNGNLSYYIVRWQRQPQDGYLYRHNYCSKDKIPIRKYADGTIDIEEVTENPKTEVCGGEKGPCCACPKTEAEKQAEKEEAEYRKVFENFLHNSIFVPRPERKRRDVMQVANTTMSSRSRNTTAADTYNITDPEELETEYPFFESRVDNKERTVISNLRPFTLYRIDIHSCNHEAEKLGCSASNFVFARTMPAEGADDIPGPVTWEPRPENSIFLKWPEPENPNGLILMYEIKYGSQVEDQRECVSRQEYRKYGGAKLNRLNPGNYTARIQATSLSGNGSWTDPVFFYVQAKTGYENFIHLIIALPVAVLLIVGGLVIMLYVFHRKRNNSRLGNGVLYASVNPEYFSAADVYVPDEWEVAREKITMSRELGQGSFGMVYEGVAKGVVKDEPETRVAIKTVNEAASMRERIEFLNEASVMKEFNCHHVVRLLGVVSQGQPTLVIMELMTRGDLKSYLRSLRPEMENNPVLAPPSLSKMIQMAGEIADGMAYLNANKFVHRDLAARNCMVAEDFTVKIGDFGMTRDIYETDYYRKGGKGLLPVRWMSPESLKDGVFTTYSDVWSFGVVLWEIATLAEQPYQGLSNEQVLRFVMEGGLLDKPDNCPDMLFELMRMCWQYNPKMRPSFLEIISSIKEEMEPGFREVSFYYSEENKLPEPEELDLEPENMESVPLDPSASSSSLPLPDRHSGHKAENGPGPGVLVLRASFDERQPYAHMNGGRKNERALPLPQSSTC

For `CC1(C)C(=O)N(c2ccc(SC(F)(F)F)cc2)C(=O)N1Cc1ccnc(NC(N)=O)c1` [Example 40A], the IC50 (in general, the point on the concentration scale where inhibition reaches its midpoint) is 0.01 to 0.1 µM in the test on MEF-IGF1R cells, 0.01 to 0.1 µM in test [1] (setting [4]), < 0.01 µM in test [1] (setting [5]) and < 0.01 µM at IGF-1R in MCF7 cells [2].

Take `CCCCN(C)C(=O)Nc1cc(CN2C(=O)N(c3ccc(SC(F)(F)F)cc3)C(=O)C2(C)C)ccn1` [Example 36, 1-butyl-3-{4-[(5,5-dimethyl-2,4-dioxo-3-{4-[(trifluoromethyl)thio]phenyl}imidazolidin-1-yl)methyl]pyridin-2-yl}-1-methylurea]: the IC50 (in the test with MEF-IGF1R cells; at IGF-1R in MCF7 cells [3]; in test [1] (setting [4]); in test [1] (setting [5])) was 0.01 to 0.1 µM throughout.

For `CN(C)C(=O)c1cccc(Nc2cc(CN3C(=O)N(c4ccc(SC(F)(F)F)cc4)C(=O)C3(C)C)ccn2)c1` [Example 8, 3-({4-[(5,5-dimethyl-2,4-dioxo-3-{4-[(trifluoro-methyl)thio]phenyl}imidazolidin-1-yl)methyl]pyridin-2-yl}amino)-N,N-dimethylbenzamide], the IC50 in the test on MEF-IGF1R cells is 0.01 to 0.1 µM; on IGF-1R in MCF7 cells [3], < 0.01 µM; in test [1] (setting [4]) it was 0.01 to 0.1 µM; in test [1] (setting [5]), < 0.01 µM.

Consider `CC1(C)C(=O)N(c2ccc(SC(F)(F)F)cc2)C(=O)N1Cc1ccnc(Nc2cncnc2)c1` [Example 14, 5,5-dimethyl-1-{[2-(pyrimidin-5-ylamino)pyridin-4-yl]methyl}-3-{4-[(trifluoromethyl)thio]phenyl}imidazolidine-2,4-dione], for which the IC50 (in the test with MEF-IGF1R cells; on IGF-1R in MCF7 cells [3]; in test [1] (setting [4]); in test [1] (setting [5])) was > 0.1 µM in each case.
